Consider 7 compounds from PubChem BioAssay (NCI).

Test systems include HS 578T breast; SF-295 CNS; K-562 leukemia; OVCAR-8 ovarian; SK-MEL-28 melanoma; HCC-2998 colon; SK-OV-3 ovarian; OVCAR-5 ovarian; NCI-H23 lung; A549 NSCLC; MALME-3M melanoma; 786-0 renal; RXF 393 renal; HCT-15 colon; SF-268 CNS; UACC-62 melanoma; HCT-116 colon; OVCAR-3 ovarian; HOP-62 NSCLC.
Common to all, as to assay: DTP human tumour cell line panel, 48 h

SMILES strings stand for the structures.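 Results reflect a 48-hour exposure of cells in 96-well plates to compound at five concentrations. TGI denotes the concentration required for complete inhibition of growth.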

As to `Clc1cc(OCc2nn3c(Cc4ccccc4)nnc3s2)c(Cl)cc1OCc1nn2c(Cc3ccccc3)nnc2s1`, the TGI (usually the concentration giving total growth inhibition) is over 100 µM with HS 578T breast; over 100 µM in the experiment on SF-295 CNS; 24.2 µM in the experiment on K-562 leukemia; over 100 µM in the experiment with OVCAR-8 ovarian; over 100 µM in the experiment on SK-MEL-28 melanoma; over 100 µM with HCC-2998 colon. For the same compound, the TGI with SK-OV-3 ovarian is 82.1 µM; with OVCAR-5 ovarian, over 100 µM; in the experiment with NCI-H23 lung, over 100 µM; in the experiment with A549 NSCLC, over 100 µM; with MALME-3M melanoma, over 100 µM; in the experiment on 786-0 renal, over 100 µM. In addition, the TGI in the experiment on RXF 393 renal is 75.4 µM; with HCT-15 colon it was over 100 µM; in the experiment with SF-268 CNS, over 100 µM; in the experiment on UACC-62 melanoma, over 100 µM; in the experiment on HCT-116 colon it was over 100 µM; with OVCAR-3 ovarian, over 100 µM. The same compound displayed a TGI in the experiment with HOP-62 NSCLC of over 100 µM.
Take `Nc1n[nH]c2c(C(=O)Nc3ccc(Cl)cc3)c(N)n(N)c(=O)c12`: the TGI with HS 578T breast, with K-562 leukemia, with OVCAR-8 ovarian, in the experiment on SK-MEL-28 melanoma, in the experiment on HCC-2998 colon and in the experiment on SK-OV-3 ovarian was over 100 µM throughout. Moreover, the TGI with OVCAR-5 ovarian, in the experiment on NCI-H23 lung, with A549 NSCLC, in the experiment with MALME-3M melanoma, with 786-0 renal and in the experiment with RXF 393 renal was over 100 µM throughout. Besides, the TGI with HCT-15 colon, in the experiment with SF-268 CNS, with UACC-62 melanoma, in the experiment with HCT-116 colon and with OVCAR-3 ovarian was over 100 µM throughout.
As to `O=C1C(c2c(O)[nH]c3ccc(Cl)cc23)=Nc2ccccc21`, the TGI is 24.1 µM in the experiment with HS 578T breast; over 78.8 µM in the experiment with SF-295 CNS; over 100 µM with K-562 leukemia; 21.9 µM in the experiment with OVCAR-8 ovarian; over 100 µM with SK-MEL-28 melanoma; over 26.8 µM in the experiment with HCC-2998 colon. The TGI in the experiment on SK-OV-3 ovarian was 11.2 µM; with OVCAR-5 ovarian it was over 28.1 µM; with NCI-H23 lung it was 40.1 µM; with A549 NSCLC, 20.7 µM; in the experiment with MALME-3M melanoma, over 58.4 µM; with 786-0 renal it was 3.9 µM. Further, the TGI was 7.11 µM with RXF 393 renal; over 100 µM in the experiment on HCT-15 colon; 33.6 µM in the experiment on SF-268 CNS; over 91.3 µM in the experiment on UACC-62 melanoma; 5.18 µM in the experiment with HCT-116 colon; 17.9 µM with OVCAR-3 ovarian. The compound further showed a TGI in the experiment with HOP-62 NSCLC of 38 µM.
Take `O=[N+]([O-])C(C(Cl)=C(Cl)Cl)=C(n1nnc2ccccc21)n1nnc2ccccc21`: the TGI is 85.6 µM in the experiment with HS 578T breast; over 67.9 µM in the experiment on SF-295 CNS; 30.6 µM in the experiment with K-562 leukemia; 48.8 µM with OVCAR-8 ovarian; 64.9 µM in the experiment with SK-MEL-28 melanoma; over 67.1 µM in the experiment with HCC-2998 colon. Also, the TGI was over 58 µM in the experiment on SK-OV-3 ovarian; over 66.3 µM with OVCAR-5 ovarian; over 75.5 µM in the experiment with NCI-H23 lung; over 72.4 µM in the experiment on A549 NSCLC; 49 µM in the experiment with MALME-3M melanoma; 20.4 µM in the experiment with 786-0 renal. The TGI with RXF 393 renal is 50 µM; in the experiment with HCT-15 colon, 61.7 µM; with SF-268 CNS, 70 µM; in the experiment with UACC-62 melanoma, over 58.2 µM; in the experiment with HCT-116 colon it was 50.2 µM; in the experiment on OVCAR-3 ovarian it was 62.4 µM. The compound also registered a concentration for total growth inhibition (TGI) with HOP-62 NSCLC of over 68.4 µM.
Consider `CCOC(=O)c1c(N2CCOCC2)ncn(-c2cccc(Cl)c2)c1=O`, for which the TGI in the experiment with HS 578T breast, with SF-295 CNS, in the experiment on K-562 leukemia, in the experiment on OVCAR-8 ovarian, in the experiment with SK-MEL-28 melanoma and with HCC-2998 colon was over 100 µM throughout. For the same compound, the TGI in the experiment on SK-OV-3 ovarian, with OVCAR-5 ovarian, with NCI-H23 lung, in the experiment with A549 NSCLC, in the experiment on MALME-3M melanoma and in the experiment with 786-0 renal was over 100 µM throughout. Moreover, the TGI in the experiment with RXF 393 renal, with HCT-15 colon, in the experiment on SF-268 CNS, in the experiment with UACC-62 melanoma, in the experiment on HCT-116 colon and in the experiment on OVCAR-3 ovarian was over 100 µM in each case. This compound also displayed a TGI with HOP-62 NSCLC of over 100 µM.
As for `N#Cc1c(N)nc(SCc2ccccc2)c(C#N)c1-c1ccc(O)cc1`, the TGI is over 100 µM in the experiment on HS 578T breast; 32.3 µM in the experiment with SF-295 CNS; 37.8 µM in the experiment on K-562 leukemia; 30.7 µM in the experiment on OVCAR-8 ovarian; 33 µM in the experiment on SK-MEL-28 melanoma; over 55.6 µM with HCC-2998 colon. The TGI in the experiment with SK-OV-3 ovarian is 31.4 µM; with OVCAR-5 ovarian, 32.2 µM; in the experiment on NCI-H23 lung, 33.2 µM; in the experiment on A549 NSCLC it was 48.7 µM; in the experiment on MALME-3M melanoma, 30 µM; in the experiment with 786-0 renal, 30.6 µM. For the same compound, the TGI stood at 45.1 µM in the experiment on RXF 393 renal; 30.4 µM in the experiment on HCT-15 colon; 66.9 µM with SF-268 CNS; 39.8 µM in the experiment on UACC-62 melanoma; 25.1 µM with HCT-116 colon; 33.4 µM in the experiment with OVCAR-3 ovarian. In the experiment on HOP-62 NSCLC, this compound yielded a TGI of 32.6 µM.
Turning to `Cc1cccc(Nc2nc3ccccc3nc2NS(=O)(=O)c2ccccc2)c1`, the TGI is over 100 µM in the experiment with HS 578T breast; over 100 µM in the experiment with SF-295 CNS; over 100 µM with K-562 leukemia; over 100 µM in the experiment with OVCAR-8 ovarian; over 100 µM in the experiment with SK-MEL-28 melanoma; 6.93 µM in the experiment on HCC-2998 colon. Moreover, the TGI with SK-OV-3 ovarian was over 100 µM; in the experiment on OVCAR-5 ovarian, over 100 µM; in the experiment on NCI-H23 lung, 93.1 µM; in the experiment with A549 NSCLC, over 100 µM; in the experiment with MALME-3M melanoma it was over 100 µM; in the experiment on 786-0 renal, over 100 µM. For the same compound, the total growth inhibition concentration (TGI) was over 100 µM in the experiment with RXF 393 renal; 65.9 µM in the experiment on HCT-15 colon; over 100 µM with SF-268 CNS; over 100 µM with UACC-62 melanoma; over 100 µM in the experiment with HCT-116 colon; 80 µM in the experiment on OVCAR-3 ovarian. Also, in the experiment with HOP-62 NSCLC, the TGI worked out at 87.1 µM.
